Counter-ions that a name gives are not always drawn. Like-named read-outs stand apart in the source and are kept apart here. *1 amine or outer side, *2 acyl side, *3 side chain or, on linkers, in order; H or OH if unused. Where a SMILES comes first, the peptide text is derived from it. Side-chain parts run from the residue outwards. [ ]: non-standard residue; d: D form. The star is where a group is joined. 2Naphthoyl(6-OH) = O=C(c1ccc2cc(O)ccc2c1)*; NMeW = CN[C@@H](Cc1c[nH]c2ccccc12)C(=O)O; NMeF = CN[C@@H](Cc1ccccc1)C(=O)O; Cha = N[C@@H](CC1CCCCC1)C(=O)O; NMeD = CN[C@@H](CC(=O)O)C(=O)O; NH(2-Me-phenyl) = Cc1ccccc1N*; Suc = O=C(CCC(=O)[*:2])[*:1]; Boc = CC(C)(C)OC(=O)*; CO = O=C([*:1])[*:2]; Bz = O=C(c1ccccc1)*

One experiment deals with T1, Type-B CCK receptor (Cavia porcellus, UniProt H0VZC5).
T1 construct: Cortical and pancreatic membranes were prepared as described; from tissue; host or cells: guinea pig cerebral cortex membranes
T1 sequence (H0VZC5 1-426): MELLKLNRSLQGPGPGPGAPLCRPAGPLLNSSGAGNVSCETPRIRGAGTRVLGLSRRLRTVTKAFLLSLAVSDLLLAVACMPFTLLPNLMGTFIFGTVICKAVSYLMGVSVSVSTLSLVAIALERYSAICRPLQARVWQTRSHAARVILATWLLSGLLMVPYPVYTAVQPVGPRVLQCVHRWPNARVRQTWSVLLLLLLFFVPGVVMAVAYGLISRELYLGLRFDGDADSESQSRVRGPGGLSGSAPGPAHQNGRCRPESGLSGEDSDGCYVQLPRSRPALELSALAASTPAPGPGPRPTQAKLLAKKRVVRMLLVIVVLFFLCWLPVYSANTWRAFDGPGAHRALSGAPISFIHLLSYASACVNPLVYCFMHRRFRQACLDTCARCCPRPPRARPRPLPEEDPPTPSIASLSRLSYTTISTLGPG
As to the kind of experiment: Radioligand binding of [125I]BH-CCK-8 in guinea pig cerebral cortical membrane preparations. An outline of the steps:
(§1)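 Membranes came from male guinea pig pancreas (type A) or cerebral cortex (type B) and were resuspended in pH 7.4 HEPES-EGTA-salt buffer containing bestatin and phosphoramidon. Test compounds competed with [125I]BH-CCK-8 in 0.1% BSA: cortex 150 min at 30 °C, pancreas 150 min at 37 °C. Reactions ended by filtration; IC50 from Hill analysis.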

The next experiment relates to rats. As to the kind of experiment: Feeding effects of acute administration of CCK agonists in rats (liquid diet). It is filed as in vivo. Particulars: i.p., acute (1 day). An excerpt:
Feeding Effects of Acute Administration of CCK Agonists in Rats
The experimental paradigm used in the above-mentioned chronic feeding studies was employed to establish dose reponses for CCK agonists of this invention on an acute (1 day) basis. Following an 8-day diet acclimation period, the rats were weighed and injected with vehicle. CCK-8 or test compound (see Table 7) at doses ranging from 1-1000 nmol/kg (i.p.). Six to ten minutes later, the rats were presented with the diet and intakes were recorded. No injections were administered prior to the P.M. feeding. Mean A.M. intakes as a percent of control were plotted versus log dose (nm/kg) to establish the dose response curve.

For another experiment, the target named is T2, Type-A CCK receptor (Cavia porcellus, UniProt Q63931).
T2 construct: Cortical and pancreatic membranes were prepared as described; from tissue; host or cells: guinea pig pancreas membranes
T2 sequence (Q63931 1-430): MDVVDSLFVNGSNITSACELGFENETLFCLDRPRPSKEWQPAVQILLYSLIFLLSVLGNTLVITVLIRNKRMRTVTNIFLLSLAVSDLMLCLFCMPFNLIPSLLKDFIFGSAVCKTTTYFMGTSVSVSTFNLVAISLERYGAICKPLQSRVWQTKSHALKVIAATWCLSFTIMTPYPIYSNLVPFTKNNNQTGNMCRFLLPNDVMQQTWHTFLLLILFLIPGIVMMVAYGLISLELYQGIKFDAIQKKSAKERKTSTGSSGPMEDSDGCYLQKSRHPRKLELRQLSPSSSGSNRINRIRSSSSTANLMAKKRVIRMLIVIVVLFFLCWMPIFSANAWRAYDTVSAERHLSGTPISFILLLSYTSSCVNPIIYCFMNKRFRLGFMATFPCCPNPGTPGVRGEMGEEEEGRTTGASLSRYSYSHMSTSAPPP
As to the kind of experiment: Radioligand binding of [125I]BH-CCK-8 in guinea pig pancreatic membrane preparations. An outline of the steps: as §1

The mark [1] stands for this setting: guinea pig cortical membranes, 30° C., 150 minutes, read-out: IC50 (nM) 125I-BH-CCK-8 Type-B receptor.
Where [2] appears, read: guinea pig pancreatic membranes, 37° C., 150 min, read-out: IC50 (nM) 125I-BH-CCK-8 Type-A receptor.
Setting [3] is: IC50 (nM) 125I-BH-CCK-8 Type-B receptor, guinea pig cortical membranes, 30° C., 150 minutes.
[4] abbreviates: IC50 (nM) 125I-BH-CCK-8 Type-A receptor, guinea pig pancreatic membranes, 37° C., 150 min.

For `CCOC(=O)C(C)(Cc1c[nH]c2ccccc12)C(=O)N[C@@H](CCCCNC(=O)Nc1ccccc1C)C(=O)N[C@@H](CC(=O)O)C(=O)N(C)[C@@H](Cc1ccccc1)C(N)=O` (some centres unmarked) [Example 107, (2-Carboethoxy-2-methyl-3-(3-indolyl)propionyl)-Lys(ε-N-(2-methylphenyl)amino-carbonyl)-Asp-(NMe)PheNH2], the half-maximal inhibitory concentration (IC50) at Type-B CCK receptor (setting [1]) is 1400 nM. Besides, in the experiment with rats, the “ED25, suppression of feeding (liquid diet)” value (“ED25, suppression of feeding” for short) is 3.7 nmol/kg and the “ED50, dose required to decrease mean A.M. food intake by 50%” value was 26.1 nmol/kg. Besides, the IC50 on Type-A CCK receptor (setting [2]) worked out at 21 nM.

Consider `Cc1ccccc1NC(=O)NCCCC[C@H](NC(=O)C(Cc1c[nH]c2ccccc12)C(N)=O)C(=O)N[C@@H](CC(=O)O)C(=O)N(C)[C@@H](Cc1ccccc1)C(N)=O` (some centres unmarked) [Example 106, (2-Aminocarbonyl-3-(3-indolyl)propionyl)-Lys(ε-N-(2-methylphenyl)aminocarbonyl)-Asp-(NMe)PheNH2], for which the IC50 on Type-B CCK receptor (setting [1]) was > 10000 nM. For the same compound, in the experiment on rats, the “ED25, suppression of feeding” value turned out to be 6.9 nmol/kg and the “ED50, dose required to decrease mean A.M. food intake by 50%” value is listed as 58.5 nmol/kg. Further, at Type-A CCK receptor (setting [2]), the IC50 turned out to be 13 nM.

For `Cc1ccccc1NC(=O)NCCCC[C@H](NC(=O)[C@H](Cc1c[nH]c2ccccc12)NC(=O)OC(C)(C)C)C(=O)N(C)[C@@H](CC(=O)O)C(=O)N(C)[C@@H](Cc1ccccc1)C(N)=O` [Example 61, t-BOC-Trp-Lys(ε-N-(2-methylphenyl)aminocarbonyl)(NMe)Asp-(NMe)PheNH2] (Boc-WK([CO-NH(2-Me-phenyl)])[NMeD][NMeF]-NH2), on Type-B CCK receptor, the IC50 was determined as 10000 nM. In the experiment on rats, the “ED25, suppression of feeding” value was 0.6 nmol/kg and the “ED50, dose required to decrease mean A.M. food intake by 50%” value was 2.6 nmol/kg. The compound further came in with an IC50 at Type-A CCK receptor of 4.8 nM.

Take `Cc1ccccc1NC(=O)NCCCC[C@H](NC(=O)[C@H](Cc1c[nH]c2ccccc12)NC(=O)CCC(=O)O)C(=O)N[C@@H](CC(=O)O)C(=O)N(C)[C@@H](Cc1ccccc1)C(N)=O` [Example 94, (3-Carboxylpropionyl)-Trp-Lys(ε-N-(2-methylphenyl)aminocarbonyl)-Asp-(NMe)PheNH2] (Suc-WK([CO-NH(2-Me-phenyl)])D[NMeF]-NH2): the figures for the IC50 at Type-B CCK receptor and on Type-A CCK receptor were 5600 nM and 16 nM, respectively.

In the case of `Cc1ccccc1NC(=O)NCCCC[C@H](NC(=O)[C@H](Cc1c[nH]c2ccccc12)NC(=O)c1ccccc1)C(=O)N[C@@H](CC(=O)O)C(=O)N(C)[C@@H](Cc1ccccc1)C(N)=O` [Example 89, Benzoyl-Trp-Lys(ε-N-(2-methylphenyl)aminocarbonyl)-Asp-(NMe)PheNH2] (Bz-WK([CO-NH(2-Me-phenyl)])D[NMeF]-NH2), the IC50 at Type-B CCK receptor (setting [3]) worked out at 4600 nM; at Type-A CCK receptor (setting [4]) it was 1.8 nM.

Turning to `Cc1ccccc1NC(=O)NCCCC[C@H](NC(=O)CCc1c[nH]c2ccccc12)C(=O)N(C)[C@@H](CC(=O)O)C(=O)N[C@@H](Cc1ccccc1)C(N)=O` [Example 65, 3-(3-Indolyl)propionyl-Lys(ε-N-(2-methylphenyl)aminocarbonyl)-(NMe)Asp-PheNH2], the IC50 on Type-B CCK receptor (setting [1]) came to 10000 nM; on Type-A CCK receptor (setting [2]) it was 68 nM.

For `CN(C(=O)[C@H](CCCCNC(=O)c1ccc2cc(O)ccc2c1)NC(=O)[C@H](Cc1c[nH]c2ccccc12)NC(=O)OC(C)(C)C)[C@@H](CC(=O)O)C(=O)N(C)[C@@H](Cc1ccccc1)C(N)=O` [Example 73] (Boc-WK(2Naphthoyl(6-OH))[NMeD][NMeF]-NH2), the figures for the IC50 on Type-B CCK receptor (setting [1]) and at Type-A CCK receptor (setting [2]) were 3700 nM and 15 nM, respectively.

With `CN[C@@H](Cc1c[nH]c2ccccc12)C(=O)N[C@@H](CCCCNC(=O)Nc1ccccc1C)C(=O)N(C)[C@@H](CC(=O)O)C(=O)N[C@@H](Cc1ccccc1)C(N)=O` [Example 69, HCl-(NMe)Trp-Lys(ε-N-(2-methylphenyl)aminocarbonyl)-(NMe)Asp-PheNH2] (H-[NMeW]K([CO-NH(2-Me-phenyl)])[NMeD]F-NH2), the values for the IC50 at Type-B CCK receptor and on Type-A CCK receptor (setting [4]) were > 10000 nM and 14 nM, respectively.

For `Cc1ccccc1NC(=O)NCCCC[C@H](NC(=O)C(C)(N)Cc1c[nH]c2ccccc12)C(=O)N[C@@H](CC(=O)O)C(=O)N(C)[C@@H](Cc1ccccc1)C(N)=O` (single isomer, unassigned; isomer a) [Example 98, (α-Methyl)Trp-Lys(ε-N-(2-methylphenyl)aminocarbonyl)-Asp-(NMe)PheNH2 (Isomer A)], the IC50 was determined as 3200 nM at Type-B CCK receptor (setting [3]) and 4.9 nM at Type-A CCK receptor (setting [4]).

Consider `Cc1ccccc1NC(=O)NCCCC[C@H](NC(=O)C(C#N)Cc1c[nH]c2ccccc12)C(=O)N[C@@H](CC(=O)O)C(=O)N[C@@H](Cc1ccccc1)C(N)=O` (some centres unmarked) [Example 64, (2-Cyano-3-(3-indolyl)propionyl)-Lys(ε-N-(2-methylphenyl)aminocarbonyl)-Asp-PheNH2], for which the IC50 at Type-B CCK receptor (setting [1]) is 640 nM; at Type-A CCK receptor (setting [2]), 10 nM.

In the case of `Cc1ccccc1NC(=O)NCCCC[C@H](NC(=O)[C@H](Cc1c[nH]c2ccccc12)NC(=O)OC(C)(C)C)C(=O)N[C@@H](CC(=O)O)C(=O)N1CCC[C@]1(Cc1ccccc1)C(N)=O` [Example 115, t-BOC-Trp-Lys(ε-N-(2-methylphenyl)aminocarbonyl)-Asp-(S)-α-benzylprolinamide], the concentration for half-maximal inhibition (IC50) was > 10000 nM on Type-B CCK receptor (setting [3]) and 18 nM on Type-A CCK receptor (setting [4]).

For the compound `Cc1ccccc1NC(=O)NCCCC[C@H](NC(=O)CCc1c[nH]c2ccccc12)C(=O)N(C)[C@@H](CC(=O)O)C(=O)N(C)[C@@H](Cc1ccccc1)C(N)=O` [Example 102], the IC50 turned out to be 2500 nM at Type-B CCK receptor (setting [1]) and 14 nM at Type-A CCK receptor (setting [2]).

Regarding `Cc1ccccc1NC(=O)NCCCC[C@H](NC(=O)[C@H](Cc1c[nH]c2ccccc12)NC(=O)OC(C)(C)C)C(=O)N[C@@H](CC(=O)O)C(=O)N[C@@H](CC1CCCCC1)C(N)=O` [Example 116, t-BOC-Trp-Lys(ε-N-(2-methylphenyl)aminocarbonyl)-Asp-ChaNH2] (Boc-WK([CO-NH(2-Me-phenyl)])D[Cha]-NH2), the IC50 amounted to 4000 nM on Type-B CCK receptor (setting [3]) and 10 nM at Type-A CCK receptor (setting [4]).

`Cc1ccccc1NC(=O)NCCCC[C@H](NC(=O)C(C)Cc1c[nH]c2ccccc12)C(=O)N[C@@H](CC(=O)O)C(=O)N(C)[C@@H](Cc1ccccc1)C(N)=O` (some centres unmarked) [Example 104, (2-Methyl-3-(3-indolyl)propionyl)-Lys(ε-N-(2-methylphenyl)aminocarbonyl)-Asp-(NMe)PheNH2]: the IC50 worked out at 4100 nM at Type-B CCK receptor (setting [1]) and 200 nM at Type-A CCK receptor (setting [2]).

As for `CNC(=O)N[C@@H](Cc1c[nH]c2ccccc12)C(=O)N[C@@H](CCCCNC(=O)Nc1ccccc1C)C(=O)N[C@@H](CC(=O)O)C(=O)N(C)[C@@H](Cc1ccccc1)C(N)=O` [Example 83, Methylaminocarbonyl-Trp-Lys(ε-N-(2-methylphenyl)aminocarbonyl)-Asp-(NMe)PheNH2] ({NHMe-CO}-WK([CO-NH(2-Me-phenyl)])D[NMeF]-NH2), the IC50 on Type-B CCK receptor (setting [3]) came to 4900 nM; at Type-A CCK receptor (setting [4]), 9.7 nM.

`Cc1ccccc1NC(=O)NCCCC[C@H](NC(=O)C(C#N)Cc1c[nH]c2ccccc12)C(=O)N[C@@H](CC(=O)O)C(=O)N(C)[C@@H](Cc1ccccc1)C(N)=O` (some centres unmarked) [Example 105, (2-Cyano-3-(3-indolyl)propionyl)-Lys(ε-N-(2-methylphenyl)aminocarbonyl)-Asp-(NMe)PheNH2]: the IC50 stood at 1300 nM on Type-B CCK receptor (setting [1]) and 20 nM on Type-A CCK receptor (setting [2]).

The record behind these values is patent publication US5270302A, “Derivatives of tetrapeptides as CCK agonists” (priority 1991, dated 1993).
